Activity calls are given as the source filed them. The calls are words filed in the database; no cut-off is given here.
Assays:
[1] = target: T1, Catenin beta-1 (Homo sapiens) (UniProt P35222); test: Inhibition of beta-catenin phosphorylation in human HT-29 cells at 4 uM incubated for 72 hrs by Western blot analysis; assay type: cell-based
T1 sequence (whole entry): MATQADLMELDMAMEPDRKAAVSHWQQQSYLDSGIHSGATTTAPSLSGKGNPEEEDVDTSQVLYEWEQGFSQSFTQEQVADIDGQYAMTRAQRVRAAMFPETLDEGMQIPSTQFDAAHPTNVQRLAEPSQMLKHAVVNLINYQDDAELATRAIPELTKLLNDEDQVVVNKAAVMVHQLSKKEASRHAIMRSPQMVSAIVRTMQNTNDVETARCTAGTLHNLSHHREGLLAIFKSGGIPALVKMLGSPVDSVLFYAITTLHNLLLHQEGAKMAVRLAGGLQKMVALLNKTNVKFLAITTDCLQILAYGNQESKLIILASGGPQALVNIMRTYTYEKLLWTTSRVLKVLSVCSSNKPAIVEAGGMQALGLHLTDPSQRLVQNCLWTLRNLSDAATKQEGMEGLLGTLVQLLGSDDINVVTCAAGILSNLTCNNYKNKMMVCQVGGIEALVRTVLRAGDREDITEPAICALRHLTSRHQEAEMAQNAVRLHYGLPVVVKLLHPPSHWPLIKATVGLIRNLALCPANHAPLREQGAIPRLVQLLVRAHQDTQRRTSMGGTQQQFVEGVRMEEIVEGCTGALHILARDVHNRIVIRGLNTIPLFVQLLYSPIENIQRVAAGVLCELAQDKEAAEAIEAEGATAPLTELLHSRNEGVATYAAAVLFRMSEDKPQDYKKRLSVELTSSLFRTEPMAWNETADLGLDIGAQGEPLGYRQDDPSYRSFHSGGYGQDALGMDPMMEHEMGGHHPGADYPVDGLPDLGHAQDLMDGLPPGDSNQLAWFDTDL

[2] = test system: HT-29; test: Inhibition of phosphorylated PI3K-p85 protein expression in human HT-29 cells at 1 uM incubated for 72 hrs by Western blot analysis; assay type: functional, cell-based
[3] = test system: HT-29; test: Inhibition of AKT protein expression in human HT-29 cells at 2 uM incubated for 72 hrs by Western blot analysis; assay type: functional, cell-based

## COc1cccc(-n2c(SCCc3c[nH]c4ccccc34)nnc2-c2ccncc2)c1
[1]
  inhibition: Active

## COc1ccc(-n2c(SCCc3c[nH]c4ccccc34)nnc2-c2ccncc2)cc1
[2]
  inhibition: Active

## Fc1ccccc1-n1c(SCCc2c[nH]c3ccccc23)nnc1-c1ccncc1
[3]
  inhibition: Active

Source: ChEMBL document CHEMBL5257059, “Pyridine-Based 1,2,4-Triazolo-Tethered Indole Conjugates Potentially Affecting TNKS and PI3K in Colorectal Cancer” (ACS Med Chem Lett, 2023)
